Measurements taken from the NIST ThermoML archive (doi:10.1021/je049591p).

Legend:
[1] = for surface tension liquid-gas: Ring tensiometer; for mass density: 101.33 kPa, Liquid
[2] = xn = mol fraction of the nth substance listed; details: Ring tensiometer

OCCO [1,2-ethanediol]
[1]
Details | mass density [kg/m3] | surface tension liquid-gas [mN/m]
293.15 K | 1113.34 | 48.42
298.15 K | – | 48.03
303.15 K | 1106.36 | 47.57
308.15 K | – | 47.2
313.15 K | 1098.39 | 46.78
318.15 K | – | 46.42
323.15 K | 1091.05 | 46.02

OCCO [1,2-ethanediol] + OCc1ccccc1
[2], x2 = 0
Details | surface tension liquid-gas [mN/m]
293.15 K | 48.42
298.15 K | 48.03
303.15 K | 47.57
308.15 K | 47.2
313.15 K | 46.78
318.15 K | 46.42
323.15 K | 46.02

OCc1ccccc1 [benzenemethanol]
[1]
Details | mass density [kg/m3] | surface tension liquid-gas [mN/m]
293.15 K | 1045.2 | 39.05
298.15 K | 1041.4 | 38.58
303.15 K | 1037.5 | 38.12
308.15 K | 1033.6 | 37.63
313.15 K | 1029.8 | 37.16
318.15 K | 1025.8 | 36.63
323.15 K | 1021.9 | 36.18

OCc1ccccc1 [benzenemethanol] + OCCO
surface tension liquid-gas [mN/m], [2]
Details | 293.15 K | 298.15 K | 303.15 K | 308.15 K | 313.15 K | 318.15 K | 323.15 K
x1 = 0.0319 | 47.78 | 47.35 | 46.92 | 46.54 | 46.14 | 45.71 | 45.26
x1 = 0.0535 | 47.45 | 47.01 | 46.53 | 46.07 | 45.66 | 45.24 | 44.79
x1 = 0.0727 | 47.13 | 46.67 | 46.15 | 45.72 | 45.26 | 44.86 | 44.32
x1 = 0.0854 | 46.69 | 46.19 | 45.76 | 45.31 | 44.85 | 44.41 | 43.91
x1 = 0.1118 | 45.87 | 45.43 | 44.9 | 44.46 | 44.04 | 43.53 | 43.06
x1 = 0.206 | 44.07 | 43.61 | 43.08 | 42.6 | 42.12 | 41.67 | 41.16
x1 = 0.2633 | 42.87 | 42.42 | 41.87 | 41.39 | 40.84 | 40.4 | 39.9
x1 = 0.3883 | 41.53 | 41.07 | 40.61 | 40.14 | 39.7 | 39.24 | 38.76
x1 = 0.5596 | 40.58 | 40.18 | 39.68 | 39.24 | 38.77 | 38.27 | 37.79
x1 = 0.7394 | 39.44 | 38.95 | 38.45 | 37.94 | 37.51 | 36.99 | 36.53
x1 = 0.9101 | 39.28 | 38.79 | 38.3 | 37.79 | 37.35 | 36.84 | 36.38
x1 = 1 | 39.05 | 38.58 | 38.12 | 37.63 | 37.16 | 36.63 | 36.18
